Experimental findings from patent publication US9421209B2, “Kinase modulators” (Rhizen Pharmaceuticals SA, priority 2009, dated 2016) are described below.

One data set deals with P110 δ/Pi3K δ (Homo sapiens, UniProt O00329). In words: Fluorescent (HTRF) determination of PI3K enzyme activity, δ isoform. The class given is biochemical. More on the design: inhibition: dose or concentration left out as unconfirmed. The text has this:
Assay 1: Fluorescent determination of PI3Kinase Kinase enzyme activity
Phosphoinositide 3 kinases (PI3K) belong to a class of lipid kinases that play a critical role in the regulation of several key cellular processes. The PI3K are capable of phosphorylating the 3-hydroxy position of phosphoinositols thereby generating second messengers involved in downstream signalling events. The homogenous time resolved fluorescence (HTRF) assay allows detection of 3,4,5-triphosphate (PIP3) formed as a result of phosphorylation of phosphotidylinositol 4,5-biphosphate (PIP2) by PI3K isoforms such as α, β, γ or δ.
PI3K isoform activity for α, β, γ or δ was determined using a PI3K human HTRF™ Assay Kit (Millipore, Billerica, Mass.) with modifications. All incubations were carried out at room temperature. […] After the initial incubation, 5 μl/well of 400 μM ATP was added and incubated for an additional 30 minutes. Reaction was terminated by adding 5 μl/well stop solution (Millipore, Billerica, Mass.). Five microliters of detection mix (Millipore, Billerica, Mass.) were then added to each well and was incubated for 6-18 h in the dark. […] Data were analyzed using Graphpad Prism (Graphpad software; San Diego Calif.) for IC50 determination. Percent inhibition was calculated based on the values for the blank and enzyme controls.
A general note: Time-resolved FRET reads energy transfer from a long-lived donor to a nearby acceptor.

Setting [1] is: read-out: P110 δ/ Pi3K δ IC 50 nM.

SMILES strings stand for the structures. Like-named read-outs stand apart in the source and are kept apart here.

P110 δ/Pi3K δ, sequence (O00329 whole entry, canonical isoform): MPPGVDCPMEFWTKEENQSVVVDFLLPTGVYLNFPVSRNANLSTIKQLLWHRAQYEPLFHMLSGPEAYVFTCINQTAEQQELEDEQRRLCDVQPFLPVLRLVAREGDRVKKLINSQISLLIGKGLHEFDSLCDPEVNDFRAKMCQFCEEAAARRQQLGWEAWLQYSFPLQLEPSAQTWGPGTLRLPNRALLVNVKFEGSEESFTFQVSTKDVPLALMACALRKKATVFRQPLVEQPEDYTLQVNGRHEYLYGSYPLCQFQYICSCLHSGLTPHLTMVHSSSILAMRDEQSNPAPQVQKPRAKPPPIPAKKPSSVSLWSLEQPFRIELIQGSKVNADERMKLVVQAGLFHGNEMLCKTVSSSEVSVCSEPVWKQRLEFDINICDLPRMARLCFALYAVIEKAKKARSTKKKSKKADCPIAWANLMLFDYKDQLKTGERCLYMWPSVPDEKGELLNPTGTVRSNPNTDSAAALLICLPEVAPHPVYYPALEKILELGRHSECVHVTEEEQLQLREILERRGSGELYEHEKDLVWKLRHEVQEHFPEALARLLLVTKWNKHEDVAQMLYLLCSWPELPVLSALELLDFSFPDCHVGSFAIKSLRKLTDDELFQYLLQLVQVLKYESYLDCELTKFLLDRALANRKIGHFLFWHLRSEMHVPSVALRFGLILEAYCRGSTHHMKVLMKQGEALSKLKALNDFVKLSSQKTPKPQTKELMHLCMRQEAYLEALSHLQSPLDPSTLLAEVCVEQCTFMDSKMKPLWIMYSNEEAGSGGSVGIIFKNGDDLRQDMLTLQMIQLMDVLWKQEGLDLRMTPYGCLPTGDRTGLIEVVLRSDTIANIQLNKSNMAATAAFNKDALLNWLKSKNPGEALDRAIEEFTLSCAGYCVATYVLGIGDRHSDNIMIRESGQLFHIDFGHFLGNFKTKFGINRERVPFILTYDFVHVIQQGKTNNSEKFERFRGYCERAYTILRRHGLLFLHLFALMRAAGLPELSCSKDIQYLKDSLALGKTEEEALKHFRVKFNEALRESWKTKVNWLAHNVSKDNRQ
P110 δ/Pi3K δ, sequence (P27986 whole entry partner, canonical isoform): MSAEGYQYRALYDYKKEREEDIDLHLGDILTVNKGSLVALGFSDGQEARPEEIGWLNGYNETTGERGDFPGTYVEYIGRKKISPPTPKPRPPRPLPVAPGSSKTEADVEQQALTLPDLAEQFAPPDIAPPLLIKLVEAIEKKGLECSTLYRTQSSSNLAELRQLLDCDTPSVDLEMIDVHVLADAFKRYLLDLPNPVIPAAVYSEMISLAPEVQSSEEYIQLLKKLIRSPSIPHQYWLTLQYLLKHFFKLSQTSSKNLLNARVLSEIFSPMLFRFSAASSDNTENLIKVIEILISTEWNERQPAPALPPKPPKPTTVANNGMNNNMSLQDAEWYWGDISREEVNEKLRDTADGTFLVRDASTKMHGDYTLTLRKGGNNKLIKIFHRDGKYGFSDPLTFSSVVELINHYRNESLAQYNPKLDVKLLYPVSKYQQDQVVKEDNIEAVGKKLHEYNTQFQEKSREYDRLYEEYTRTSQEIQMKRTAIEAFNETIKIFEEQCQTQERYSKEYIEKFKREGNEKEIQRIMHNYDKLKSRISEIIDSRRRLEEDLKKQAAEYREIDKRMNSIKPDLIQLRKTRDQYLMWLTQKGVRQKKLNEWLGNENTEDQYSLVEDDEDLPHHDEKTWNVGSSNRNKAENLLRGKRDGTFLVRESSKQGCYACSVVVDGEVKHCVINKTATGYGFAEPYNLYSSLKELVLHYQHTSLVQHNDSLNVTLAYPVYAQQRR

As to `COc1cc(F)cc(-c2nn(Cc3oc4ccccc4c(=O)c3-c3cccc(F)c3)c3ncnc(N)c23)c1` [Example 67, 2-((4-amino-3-(3-fluoro-5-methoxyphenyl)-1H-pyrazolo[3,4-d]pyrimidin-1-yl)methyl)-3-(3-fluorophenyl)-4H-chromen-4-one], the melting point (as a rule, the temperature, or range, at which the solid turns liquid) is 115 to 117 °C. The inhibition – broadly, how much of the control response was suppressed – at 1 µM against P110 δ/Pi3K δ is under 50%.
In the case of `CCC(c1oc2ccccc2c(=O)c1-c1cccc(F)c1)n1cnc2c(N)ncnc21` (stereo not drawn) [Example 36, 2-(1-(6-amino-9H-purin-9-yl)propyl)-3-(3-fluorophenyl)-4H-chromen-4-one], the melting point lay within 102 to 107 °C. The compound further came in with an inhibition at 1 µM at P110 δ/Pi3K δ of under 50%.
In turn, `CC(c1oc2ccc(F)cc2c(=O)c1-c1ccccc1F)n1cnc2c(N)ncnc21` (stereo not drawn) [Example 48, 2-(1-(6-amino-9H-purin-9-yl)ethyl)-6-fluoro-3-(2-fluorophenyl)-4H-chromen-4-one] gave a melting point of 245 to 248 °C. Also, the inhibition at 1 µM at P110 δ/Pi3K δ was under 50%.
Taken in the same sequence, the figures for `C[C@H](Nc1ncnc2[nH]cnc12)c1oc2ccccc2c(=O)c1-c1ccccc1` [Example 73, (S)-2-(1-(9H-purin-6-ylamino)ethyl)-3-phenyl-4H-chromen-4-one] were 135 to 138 °C and 50 to 100%.
For `CC(c1oc2ccccc2c(=O)c1-c1cccc(F)c1)n1nc(-c2cccc(C(=O)NC3CC3)c2)c2c(N)ncnc21` (stereo not drawn) [Example 176, 3-(4-amino-1-(1-(3-(3-fluorophenyl)-4-oxo-4H-chromen-2-yl)ethyl)-1H-pyrazolo[3,4-d]pyrimidin-3-yl)-N-cyclopropylbenzamide], the melting point was 127 to 132 °C. The compound also showed an inhibition at P110 δ/Pi3K δ of under 50%.
For `Cc1n[nH]c(C)c1-c1nn(C(C)c2oc3ccccc3c(=O)c2-c2cccc(F)c2)c2ncnc(N)c12` (stereo not drawn) [Example 78, 2-(1-(4-amino-3-(3,5-dimethyl-1H-pyrazol-4-yl)-1H-pyrazolo[3,4-d]pyrimidin-1-yl)ethyl)-3-(3-fluorophenyl)-4H-chromen-4-one], in that order: 240 to 243 °C and under 50%.
For `CC(c1oc2ccccc2c(=O)c1-c1cccc(F)c1)n1ccc2ncnc(Cl)c21` (stereo not drawn) [Example 169, 2-(1-(4-Chloro-5H-pyrrolo[3,2-d]pyrimidin-5-yl)ethyl)-3-(3-fluorophenyl)-4H-chromen-4-one], in that order: 166 to 168 °C and under 50%.
For the compound `CC(c1oc2ccc(Br)cc2c(=O)c1-c1ccccc1)n1cnc2c(N)ncnc21` (stereo not drawn) [Example 21, 2-(1-(6-Amino-9H-purin-9-yl)ethyl)-6-bromo-3-phenyl-4H-chromen-4-one], the melting point lay within 230 to 231 °C. Moreover, the inhibition at 1 µM at P110 δ/Pi3K δ is under 50%.
In turn, `CC(c1oc2ccccc2c(=O)c1-c1cccc(F)c1)n1nc(-c2ccc(CN)s2)c2c(N)ncnc21` (stereo not drawn) [Example 102a, 2-(1-(4-amino-3-(5-(aminomethyl)thiophen-2-yl)-1H-pyrazolo[3,4-d]pyrimidin-1-yl)ethyl)-3-(3-fluorophenyl)-4H-chromen-4-one] came in with a melting point of 275 to 278 °C. Moreover, on P110 δ/Pi3K δ, the inhibition is under 50%.
As for `Cc1n[nH]c2cc(-c3nn(C(C)c4oc5ccccc5c(=O)c4-c4ccccc4)c4ncnc(N)c34)ccc12` (stereo not drawn) [Example 104, 2-(1-(4-amino-3-(3-methyl-1H-indazol-6-yl)-1H-pyrazolo[3,4-d]pyrimidin-1-yl)ethyl)-3-phenyl-4H-chromen-4-one], the melting point was 249 to 252 °C. This compound showed an inhibition at P110 δ/Pi3K δ of 50 to 100%. Also, the IC50 on P110 δ/Pi3K δ (setting [1]) is under 250 nM.
Take `Nc1ncnc2c1c(CCCO)nn2Cc1oc2ccccc2c(=O)c1-c1ccccc1` [Example 64, 2-((4-amino-3-(3-hydroxypropyl)-1H-pyrazolo[3,4-d]pyrimidin-1-yl)methyl)-3-phenyl-4H-chromen-4-one]: the melting point lay in the range of 182 to 184 °C. In addition, the inhibition at 1 µM at P110 δ/Pi3K δ is under 50%.
The compound `CC(c1oc2ccc(F)cc2c(=O)c1-c1ccccc1)n1cnc2c(N)ncnc21` (stereo not drawn) [Example 40, 2-(1-(6-Amino-9H-purin-9-yl)ethyl)-6-fluoro-3-phenyl-4H-chromen-4-one] returned a melting point of 264 to 269 °C. In addition, the inhibition at 1 µM against P110 δ/Pi3K δ was 50 to 100%.
As to `Cc1n[nH]c2cc(-c3nn(Cc4oc5ccc(F)cc5c(=O)c4-c4ccccc4)c4ncnc(N)c34)ccc12` [Example 103, 2-((4-amino-3-(3-methyl-1H-indazol-6-yl)-1H-pyrazolo[3,4-d]pyrimidin-1-yl)methyl)-6-fluoro-3-phenyl-4H-chromen-4-one], the melting point fell in the range of 277 to 279 °C. The compound further showed an inhibition against P110 δ/Pi3K δ of 50 to 100%. Moreover, the IC50 on P110 δ/Pi3K δ (setting [1]) was under 250 nM.
`Nc1ncnc2c1ncn2Cc1oc2ccc(Br)cc2c(=O)c1-c1ccccc1F` [Example 29, 2-((6-Amino-9H-purin-9-yl)methyl)-6-bromo-3-(2-fluorophenyl)-4H-chromen-4-one] displayed a melting point of 231 to 233 °C. Further, the inhibition at 1 µM against P110 δ/Pi3K δ was under 50%.
Take `CC(c1oc2ccccc2c(=O)c1-c1cc(F)cc(F)c1)n1cnc2c(N)ncnc21` (stereo not drawn) [Example 49, 2-(1-(6-Amino-9H-purin-9-yl)ethyl)-3-(3,5-difluorophenyl)-4H-chromen-4-one]: the melting point was in the range of 267 to 269 °C. The compound also gave an inhibition at 1 µM against P110 δ/Pi3K δ of under 50%.
For `Nc1ncnc2c1ncn2Cc1oc2ccc(Br)cc2c(=O)c1-c1ccc(F)cc1` [Example 15, 2-[(6-Amino-9H-purin-9-yl)methyl]-6-bromo-3-(4-fluorophenyl)-4H-chromen-4-one], in that order: 238 to 242 °C and under 50%.
In the case of `O=c1c(-c2ccccc2)c(CSc2ncnc3[nH]cnc23)oc2ccccc12` [Example 11, 2-((9H-Purin-6-ylthio)methyl)-3-phenyl-4H-chromen-4-one], the melting point lay within 208 to 209 °C. Further, the inhibition at 1 µM against P110 δ/Pi3K δ was under 50%.
The compound `Nc1ncnc2c1ncn2Cc1oc2ccccc2c(=O)c1-c1ccc(F)cc1` [Example 16, 2-[(6-Amino-9H-purin-9-yl)methyl]-3-(4-fluorophenyl)-4H-chromen-4-one] showed a melting point of 212 to 216 °C. Besides, the inhibition at 1 µM on P110 δ/Pi3K δ is under 50%.
As for `O=c1c(-c2ccccc2)c(CSc2ncnc3[nH]cnc23)oc2ccc(Br)cc12` [Example 13, 2-[(9H-Purin-6-ylthio)methyl]-6-bromo-3-phenyl-4H-chromen-4-one], the melting point lay in the range of 214 to 218 °C. On P110 δ/Pi3K δ, the inhibition at 1 µM was under 50%.
For `COc1cccc(-c2nn(Cc3oc4ccccc4c(=O)c3-c3ccccc3)c3ncnc(N)c23)c1` [Example 52, 2-((4-Amino-3-(3-methoxyphenyl)-1H-pyrazolo[3,4-d]pyrimidin-1-yl)methyl)-3-phenyl-4H-chromen-4-one], in that order: 111 to 115 °C and under 50%.
Taken in the same sequence, the figures for `Cl.O=c1c(-c2ccc(F)cc2)c(CN2CCOCC2)oc2ccccc12` [Example 18a, 3-(4-fluorophenyl)-2-(morpholinomethyl)-4H-chromen-4-one hydrochloride] were 225 to 229 °C and under 50%.
Take `COc1ccc(-c2nn(C(C)c3oc4ccccc4c(=O)c3-c3cccc(F)c3)c3ncnc(N)c23)cc1OC` (stereo not drawn) [Example 97, 2-(1-(4-amino-3-(3,4-dimethoxyphenyl)-1H-pyrazolo[3,4-d]pyrimidin-1-yl)ethyl)-3-(3-fluorophenyl)-4H-chromen-4-one]: the melting point lay in the range of 232 to 235 °C. Further, the inhibition at P110 δ/Pi3K δ fell in the range of 50 to 100%.
In turn, `Nc1ncnc2c1c(-c1cccc3[nH]ncc13)nn2Cc1oc2ccccc2c(=O)c1-c1ccccc1` [Example 62, 2-((4-amino-3-(1H-indazol-4-yl)-1H-pyrazolo[3,4-d]pyrimidin-1-yl)methyl)-3-phenyl-4H-chromen-4-one] registered a melting point of 248 to 252 °C. The inhibition at 1 µM at P110 δ/Pi3K δ was under 50%.
As for `Nc1ncnc2c1c(C#CCO)nn2Cc1oc2ccccc2c(=O)c1-c1ccccc1` [Example 59, 2-((4-amino-3-(3-hydroxyprop-1-ynyl)-1H-pyrazolo[3,4-d]pyrimidin-1-yl)methyl)-3-phenyl-4H-chromen-4-one], the melting point is 171 to 173 °C. Also, the inhibition at 1 µM against P110 δ/Pi3K δ fell in the range of 50 to 100%. Moreover, at P110 δ/Pi3K δ (read-out: P110 δ/Pi3K δ IC 50 nM), the IC50 was in the range of 250 to 500 nM.
The compound `Nc1ncnc2c1c(-c1cc(O)cc(F)c1)nn2Cc1oc2ccc(F)cc2c(=O)c1-c1cccc(F)c1` [Example 120a, 2-((4-amino-3-(3-fluoro-5-hydroxyphenyl)-1H-pyrazolo[3,4-d]pyrimidin-1-yl)methyl)-6-fluoro-3-(3-fluorophenyl)-4H-chromen-4-one] displayed a melting point of 127 to 129 °C. Besides, the inhibition at P110 δ/Pi3K δ was in the range of 50 to 100%.
With `CC(c1oc2ccccc2c(=O)c1-c1cccc(F)c1)n1ccc2c(Cl)ncnc21` (stereo not drawn) [Example 166, 2-(1-(4-Chloro-7H-pyrrolo[2,3-d]pyrimidin-7-yl)ethyl)-3-(3-fluorophenyl)-4H-chromen-4-one], the melting point is 71 to 75 °C. Moreover, the inhibition against P110 δ/Pi3K δ was under 50%.
For `O=c1c(-c2ccccc2)c(Cn2ccnc2)oc2ccccc12` [Example 12, 2-[(1H-Imidazol-1-yl)methyl]-3-phenyl-4H-chromen-4-one], the melting point fell in the range of 168 to 171 °C. The compound also showed an inhibition at 1 µM on P110 δ/Pi3K δ of under 50%.
